In US7074789B2, “Kinase inhibitors” (Amgen Inc., priority 1999, dated 2006):

What was measured:
Type in all cases: biochemical
Kdr = biological target: T1, Kdr (Homo sapiens, UniProt P35968); test: Kinase inhibition assay (33P transfer), Kdr; settings: read-out: KDR-1
T1 construct: Kinases are expressed as either kinase domains or full length constructs; made in house
How it was run: (§1)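 Steps: express kinase as GST or polyHistidine fusion in E. coli or High Five cells; optionally co-express or mix with regulatory polypeptides; incubate with 33P-ATP and plate-attached poly(Glu,Tyr) 4:1 or poly(Arg,Ser) 3:1; wash with 0.5% phosphoric acid; count by liquid scintillation.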

c-Met = biological target: T2, c-Met (Homo sapiens, UniProt P08581); test: Kinase inhibition assay (33P transfer), c-Met; settings: Table 2, kinase inhibition class; read-out: Met-1
T2 construct: Kinases are expressed as either kinase domains or full length constructs; made in house
How it was run: (§2)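 GST/His-fusion kinases, E. coli or High Five expressed, affinity purified; 33P-ATP, plate-coated poly(Glu,Tyr) 4:1 or poly(Arg,Ser) 3:1; 0.5% H3PO4 wash, scintillant, LSC.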

PDGFRB = biological target: T3, PDGFRB (Homo sapiens, UniProt P09619); test: Kinase inhibition assay (33P transfer), PDGFRB; settings: read-out: PDGFRB-1
T3 construct: Kinases are expressed as either kinase domains or full length constructs; made in house

Lck = biological target: T4, Lck (Homo sapiens, UniProt P06239); test: Kinase inhibition assay (33P transfer), Lck; settings: read-out: Lck-1
T4 construct: Kinases are expressed as either kinase domains or full length constructs; made in house
How it was run: as §1

ErbB2 = biological target: T5, ErbB2 (Homo sapiens, UniProt P04626); test: Kinase inhibition assay (33P transfer), ErbB2; settings: read-out: ErbB2-2
T5 construct: Kinases are expressed as either kinase domains or full length constructs; made in house
How it was run: as §2

Zap-70 = biological target: T6, Zap-70 (Homo sapiens, UniProt P43403); test: Kinase inhibition assay (33P transfer), Zap-70; settings: read-out: Zap-1
T6 construct: Kinases are expressed as either kinase domains or full length constructs; made in house
T6 sequence (P43403 1-619): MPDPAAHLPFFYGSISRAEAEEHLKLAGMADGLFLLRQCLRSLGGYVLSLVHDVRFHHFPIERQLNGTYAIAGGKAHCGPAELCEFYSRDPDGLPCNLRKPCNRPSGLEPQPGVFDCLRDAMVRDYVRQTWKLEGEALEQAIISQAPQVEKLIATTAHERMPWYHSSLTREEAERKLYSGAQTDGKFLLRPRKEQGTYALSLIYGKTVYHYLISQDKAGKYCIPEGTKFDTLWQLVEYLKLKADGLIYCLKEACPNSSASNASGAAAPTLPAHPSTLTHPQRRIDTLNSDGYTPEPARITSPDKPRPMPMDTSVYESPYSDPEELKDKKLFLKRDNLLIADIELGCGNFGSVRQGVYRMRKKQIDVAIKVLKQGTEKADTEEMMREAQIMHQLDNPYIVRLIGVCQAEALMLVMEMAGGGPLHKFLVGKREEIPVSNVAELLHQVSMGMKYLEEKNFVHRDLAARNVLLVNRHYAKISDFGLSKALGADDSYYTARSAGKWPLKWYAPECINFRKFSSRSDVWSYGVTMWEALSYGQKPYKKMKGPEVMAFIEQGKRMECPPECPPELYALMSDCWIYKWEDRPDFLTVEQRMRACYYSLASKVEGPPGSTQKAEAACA
How it was run: as §1

IGFR-1 = biological target: T7, IGFR-1 (Homo sapiens, UniProt P08069); test: Kinase inhibition assay, IGFR-1 (Table 2); settings: Table 2, kinase inhibition class
T7 construct: Kinases are expressed as either kinase domains or full length constructs; made in house

Itk = biological target: T8, Itk (Homo sapiens, UniProt Q08881); test: Kinase inhibition assay (33P transfer), Itk; settings: read-out: Itk-1
T8 construct: Kinases are expressed as either kinase domains or full length constructs; made in house
T8 sequence (Q08881 1-620): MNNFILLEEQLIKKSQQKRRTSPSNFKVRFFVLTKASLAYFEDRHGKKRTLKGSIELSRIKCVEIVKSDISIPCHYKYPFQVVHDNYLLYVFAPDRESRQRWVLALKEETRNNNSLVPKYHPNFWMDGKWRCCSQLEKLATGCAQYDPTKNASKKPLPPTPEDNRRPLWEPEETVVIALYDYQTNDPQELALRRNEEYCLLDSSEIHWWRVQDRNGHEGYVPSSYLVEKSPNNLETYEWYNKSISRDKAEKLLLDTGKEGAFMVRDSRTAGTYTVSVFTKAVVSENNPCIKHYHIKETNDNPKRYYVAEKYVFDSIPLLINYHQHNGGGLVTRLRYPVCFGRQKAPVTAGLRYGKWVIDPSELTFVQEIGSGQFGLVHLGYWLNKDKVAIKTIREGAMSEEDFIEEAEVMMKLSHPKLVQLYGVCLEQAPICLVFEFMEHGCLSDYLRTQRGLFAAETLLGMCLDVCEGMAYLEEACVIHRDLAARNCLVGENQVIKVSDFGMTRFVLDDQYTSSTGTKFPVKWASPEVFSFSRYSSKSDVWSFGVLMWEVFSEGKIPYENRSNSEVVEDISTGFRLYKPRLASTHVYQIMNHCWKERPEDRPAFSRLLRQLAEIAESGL
How it was run: as §2

AKT = biological target: T9, AKT (Homo sapiens, UniProt Q9Y243); test: Kinase inhibition assay (33P transfer), AKT; settings: Table 2, kinase inhibition class; read-out: AKT3-1
T9 construct: Kinases are expressed as either kinase domains or full length constructs; made in house
How it was run: as §1

EGFR = biological target: T10, EGFR (Homo sapiens, UniProt P00533); test: Kinase inhibition assay (33P transfer), EGFR; settings: Table 2, kinase inhibition class; read-out: EGFR-1
T10 construct: Kinases are expressed as either kinase domains or full length constructs; made in house
How it was run: as §2

T4 sequence (P06239 whole entry, species assumed, the tested form may be a part): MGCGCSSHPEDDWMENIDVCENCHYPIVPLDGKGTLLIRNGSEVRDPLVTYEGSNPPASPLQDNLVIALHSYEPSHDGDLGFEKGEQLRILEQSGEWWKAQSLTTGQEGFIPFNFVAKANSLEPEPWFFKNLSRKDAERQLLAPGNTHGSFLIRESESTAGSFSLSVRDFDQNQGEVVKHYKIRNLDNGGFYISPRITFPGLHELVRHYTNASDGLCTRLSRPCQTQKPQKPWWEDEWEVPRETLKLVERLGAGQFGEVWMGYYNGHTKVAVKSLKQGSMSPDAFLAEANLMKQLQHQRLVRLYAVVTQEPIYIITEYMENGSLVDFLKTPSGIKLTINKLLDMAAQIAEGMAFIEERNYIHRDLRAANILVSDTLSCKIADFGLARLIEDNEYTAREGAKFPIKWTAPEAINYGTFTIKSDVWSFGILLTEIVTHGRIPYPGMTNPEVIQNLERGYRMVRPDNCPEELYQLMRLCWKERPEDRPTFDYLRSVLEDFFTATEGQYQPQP
T2 sequence (P08581 25-1390): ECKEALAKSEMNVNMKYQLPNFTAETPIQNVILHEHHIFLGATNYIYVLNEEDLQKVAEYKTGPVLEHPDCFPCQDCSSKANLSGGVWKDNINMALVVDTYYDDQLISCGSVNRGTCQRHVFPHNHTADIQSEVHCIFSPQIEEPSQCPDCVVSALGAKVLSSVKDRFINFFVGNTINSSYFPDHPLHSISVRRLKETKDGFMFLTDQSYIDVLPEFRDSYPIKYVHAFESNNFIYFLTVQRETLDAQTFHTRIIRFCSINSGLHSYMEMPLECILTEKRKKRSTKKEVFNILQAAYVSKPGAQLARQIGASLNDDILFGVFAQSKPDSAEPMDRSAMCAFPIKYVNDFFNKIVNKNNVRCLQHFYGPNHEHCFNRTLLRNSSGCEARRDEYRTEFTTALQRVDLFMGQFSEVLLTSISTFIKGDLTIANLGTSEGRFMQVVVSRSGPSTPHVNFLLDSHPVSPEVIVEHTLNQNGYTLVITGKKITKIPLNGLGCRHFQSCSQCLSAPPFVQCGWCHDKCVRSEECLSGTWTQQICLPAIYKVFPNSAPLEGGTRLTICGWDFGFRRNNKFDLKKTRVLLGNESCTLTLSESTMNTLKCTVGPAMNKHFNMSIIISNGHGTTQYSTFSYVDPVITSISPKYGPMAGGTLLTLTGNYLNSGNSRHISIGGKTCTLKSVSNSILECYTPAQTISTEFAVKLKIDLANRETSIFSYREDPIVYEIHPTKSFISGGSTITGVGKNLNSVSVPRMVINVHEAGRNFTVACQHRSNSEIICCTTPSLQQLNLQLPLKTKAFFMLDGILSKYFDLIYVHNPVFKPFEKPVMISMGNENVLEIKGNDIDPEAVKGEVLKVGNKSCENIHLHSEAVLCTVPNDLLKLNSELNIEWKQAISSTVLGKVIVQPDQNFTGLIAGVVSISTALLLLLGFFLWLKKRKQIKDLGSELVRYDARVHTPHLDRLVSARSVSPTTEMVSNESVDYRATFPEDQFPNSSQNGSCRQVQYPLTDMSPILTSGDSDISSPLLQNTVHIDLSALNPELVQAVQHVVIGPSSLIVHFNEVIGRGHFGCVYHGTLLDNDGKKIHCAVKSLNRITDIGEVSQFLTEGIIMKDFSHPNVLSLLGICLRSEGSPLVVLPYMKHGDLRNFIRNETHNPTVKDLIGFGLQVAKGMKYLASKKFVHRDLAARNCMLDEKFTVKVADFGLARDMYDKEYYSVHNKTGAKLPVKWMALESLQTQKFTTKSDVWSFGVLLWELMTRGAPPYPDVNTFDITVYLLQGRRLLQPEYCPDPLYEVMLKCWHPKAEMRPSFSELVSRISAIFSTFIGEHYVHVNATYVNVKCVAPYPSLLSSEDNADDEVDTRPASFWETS
T1 sequence (P35968 20-1356, species assumed): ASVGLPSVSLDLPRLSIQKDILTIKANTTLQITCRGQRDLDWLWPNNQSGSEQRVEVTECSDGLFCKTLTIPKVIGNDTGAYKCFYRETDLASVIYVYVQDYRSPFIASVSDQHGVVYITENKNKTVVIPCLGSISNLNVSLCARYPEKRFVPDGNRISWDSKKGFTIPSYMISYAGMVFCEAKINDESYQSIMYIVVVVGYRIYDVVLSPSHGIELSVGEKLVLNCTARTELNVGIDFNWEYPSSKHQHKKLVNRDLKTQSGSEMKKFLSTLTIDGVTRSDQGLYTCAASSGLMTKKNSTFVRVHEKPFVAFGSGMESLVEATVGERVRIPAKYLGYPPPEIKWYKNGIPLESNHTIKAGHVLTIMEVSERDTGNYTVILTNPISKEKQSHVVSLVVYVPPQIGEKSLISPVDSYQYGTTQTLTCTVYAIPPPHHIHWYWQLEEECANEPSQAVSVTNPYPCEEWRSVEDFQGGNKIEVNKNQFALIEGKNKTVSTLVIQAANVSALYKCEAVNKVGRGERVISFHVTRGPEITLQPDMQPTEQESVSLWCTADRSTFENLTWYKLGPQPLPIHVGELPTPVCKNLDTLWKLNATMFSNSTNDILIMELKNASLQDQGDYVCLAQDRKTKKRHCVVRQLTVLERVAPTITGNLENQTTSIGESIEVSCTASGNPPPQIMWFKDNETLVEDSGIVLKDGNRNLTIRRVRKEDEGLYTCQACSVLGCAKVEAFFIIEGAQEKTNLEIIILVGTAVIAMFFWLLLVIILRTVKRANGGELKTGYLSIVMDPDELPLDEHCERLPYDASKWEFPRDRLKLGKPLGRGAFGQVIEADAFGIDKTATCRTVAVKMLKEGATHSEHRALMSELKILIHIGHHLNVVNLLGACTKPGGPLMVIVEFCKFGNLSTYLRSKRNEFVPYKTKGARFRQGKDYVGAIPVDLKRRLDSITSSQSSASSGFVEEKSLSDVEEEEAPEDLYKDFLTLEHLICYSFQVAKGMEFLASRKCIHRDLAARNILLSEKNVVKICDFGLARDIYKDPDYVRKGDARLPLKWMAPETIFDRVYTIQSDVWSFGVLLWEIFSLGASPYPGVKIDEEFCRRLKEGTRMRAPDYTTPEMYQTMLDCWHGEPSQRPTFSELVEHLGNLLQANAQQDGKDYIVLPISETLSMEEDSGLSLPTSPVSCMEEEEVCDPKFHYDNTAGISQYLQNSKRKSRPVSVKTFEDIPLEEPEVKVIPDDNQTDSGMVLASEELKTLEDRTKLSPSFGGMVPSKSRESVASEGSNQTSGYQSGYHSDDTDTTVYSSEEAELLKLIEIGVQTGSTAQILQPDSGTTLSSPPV
T10 sequence (P00533 25-1210, species assumed): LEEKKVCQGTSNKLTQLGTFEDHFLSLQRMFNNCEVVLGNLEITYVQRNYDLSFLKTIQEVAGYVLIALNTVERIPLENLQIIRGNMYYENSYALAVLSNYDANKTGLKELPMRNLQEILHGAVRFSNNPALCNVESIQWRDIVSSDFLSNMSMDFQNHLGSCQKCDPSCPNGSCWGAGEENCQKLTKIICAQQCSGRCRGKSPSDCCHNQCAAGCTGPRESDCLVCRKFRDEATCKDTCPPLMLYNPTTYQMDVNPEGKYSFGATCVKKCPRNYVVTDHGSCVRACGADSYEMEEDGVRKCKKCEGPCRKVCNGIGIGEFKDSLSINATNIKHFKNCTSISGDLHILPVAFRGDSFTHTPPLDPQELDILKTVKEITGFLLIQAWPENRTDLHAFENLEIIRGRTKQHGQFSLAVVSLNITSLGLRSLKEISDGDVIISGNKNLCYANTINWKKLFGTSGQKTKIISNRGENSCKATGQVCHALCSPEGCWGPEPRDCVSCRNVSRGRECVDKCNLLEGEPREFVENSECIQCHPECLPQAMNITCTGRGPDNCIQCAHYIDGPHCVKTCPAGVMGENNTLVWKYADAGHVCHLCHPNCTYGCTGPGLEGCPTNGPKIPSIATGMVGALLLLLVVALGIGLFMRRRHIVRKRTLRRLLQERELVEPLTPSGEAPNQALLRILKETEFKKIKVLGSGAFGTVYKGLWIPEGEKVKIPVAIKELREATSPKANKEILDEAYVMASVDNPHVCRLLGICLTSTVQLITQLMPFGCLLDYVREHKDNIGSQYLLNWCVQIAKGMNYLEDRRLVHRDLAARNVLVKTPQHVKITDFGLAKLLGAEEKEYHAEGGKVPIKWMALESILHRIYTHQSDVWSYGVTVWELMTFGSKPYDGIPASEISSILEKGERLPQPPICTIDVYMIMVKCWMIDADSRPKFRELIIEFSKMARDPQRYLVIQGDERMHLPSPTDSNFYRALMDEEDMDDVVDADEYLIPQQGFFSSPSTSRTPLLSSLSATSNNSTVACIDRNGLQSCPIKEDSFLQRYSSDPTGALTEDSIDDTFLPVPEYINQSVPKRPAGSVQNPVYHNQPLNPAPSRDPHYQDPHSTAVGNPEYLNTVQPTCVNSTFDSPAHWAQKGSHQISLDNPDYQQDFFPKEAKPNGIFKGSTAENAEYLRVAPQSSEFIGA
T9 sequence (Q9Y243 whole entry, the tested form may be a part): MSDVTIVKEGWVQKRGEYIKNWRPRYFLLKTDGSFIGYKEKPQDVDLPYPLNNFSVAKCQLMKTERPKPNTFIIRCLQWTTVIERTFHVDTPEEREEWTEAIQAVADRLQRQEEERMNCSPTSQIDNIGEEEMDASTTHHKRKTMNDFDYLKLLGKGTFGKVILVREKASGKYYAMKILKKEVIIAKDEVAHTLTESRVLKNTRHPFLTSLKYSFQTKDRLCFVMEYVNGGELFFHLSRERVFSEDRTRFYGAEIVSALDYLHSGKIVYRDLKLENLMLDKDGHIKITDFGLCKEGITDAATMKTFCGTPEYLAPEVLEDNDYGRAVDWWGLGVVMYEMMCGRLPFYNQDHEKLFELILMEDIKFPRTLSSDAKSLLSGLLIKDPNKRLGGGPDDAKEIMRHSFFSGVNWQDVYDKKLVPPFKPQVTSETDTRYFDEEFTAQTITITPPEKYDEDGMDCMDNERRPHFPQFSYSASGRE

Row | Compound | IC50 (Kdr) | IC50 (c-Met) | IC50 (PDGFRB) | IC50 (Lck) | IC50 (ErbB2) | IC50 (Zap-70) | IC50 (IGFR-1) | IC50 (Itk) | IC50 (AKT) | IC50 (EGFR)
1 | COc1cc(Nc2ncnc(-n3c(NC(C)(C)c4ccccc4)nc4ccccc43)n2)cc(OC)c1OC [Compound 569] | < 0.782 µM | > 8.8 µM | < 0.782 µM | < 0.782 µM | > 8.8 µM | > 8.8 µM | > 8.8 µM | > 8.8 µM | > 8.8 µM | > 8.8 µM
2 | COc1cc(Nc2ncnc(NCCc3ccccc3)n2)cc(OC)c1OC [Compound 628] | 6.29 to 9.18 µM | > 11.8 µM | 1.05 to 6.29 µM | 1.05 to 6.29 µM | > 11.8 µM | > 11.8 µM | 1.05 to 6.29 µM | > 11.8 µM | > 11.8 µM | 1.05 to 6.29 µM
3 | Cc1ccc(Nc2ncnc(Nc3cccc(CC(=O)O)c3)n2)cc1O [Compound 543] | < 1.14 µM | > 12.8 µM | 1.14 to 6.83 µM | 6.83 to 9.96 µM | 1.14 to 6.83 µM | > 12.8 µM | > 12.8 µM | > 12.8 µM | > 12.8 µM | < 1.14 µM
4 | CN(c1cccc(Cl)c1)c1ncnc(Nc2ccc(NC(=O)OC(C)(C)C)cc2)n1 [Compound 750] | > 10.5 µM | 5.62 to 8.2 µM | > 10.5 µM | 0.937 to 5.62 µM | 5.62 to 8.2 µM | > 10.5 µM | > 10.5 µM | > 10.5 µM | > 10.5 µM | < 0.937 µM
5 | COc1cc(Nc2ncnc(NCc3ccccc3)n2)cc(OC)c1OC [Compound 630] | 6.53 to 9.53 µM | > 12.2 µM | 1.09 to 6.53 µM | 1.09 to 6.53 µM | 6.53 to 9.53 µM | > 12.2 µM | 9.53 to 12.2 µM | > 12.2 µM | > 12.2 µM | < 1.09 µM
6 | COc1cc(Nc2ncnc(Nc3cc(Cl)ccc3C)n2)cc(OC)c1OC [Compound 625] | 0.995 to 5.97 µM | > 11.2 µM | < 0.995 µM | < 0.995 µM | < 0.995 µM | > 11.2 µM | 0.995 to 5.97 µM | > 11.2 µM | > 11.2 µM | < 0.995 µM
7 | COc1cc(Nc2ncnc(Nc3ccc(OCC(=O)Nc4ccccc4)cc3)n2)cc(OC)c1OC [Compound 623] | 0.796 to 4.78 µM | 6.96 to 8.95 µM | < 0.796 µM | < 0.796 µM | 0.796 to 4.78 µM | > 8.95 µM | 0.796 to 4.78 µM | 0.796 to 4.78 µM | > 8.95 µM | 0.796 to 4.78 µM
8 | Fc1ccc(Nc2ncnc(Nc3ccc4[nH]ncc4c3)n2)cc1Cl [Compound 717] | 1.12 to 6.75 µM | 1.12 to 6.75 µM | < 1.12 µM | 1.12 to 6.75 µM | 1.12 to 6.75 µM | 1.12 to 6.75 µM | 1.12 to 6.75 µM | 1.12 to 6.75 µM | > 12.6 µM | < 1.12 µM
9 | Cc1ccc2c(c1)CCCN2c1ncnc(Nc2cccc(-c3cnco3)c2)n1 [Compound 774] | 1.04 to 6.24 µM | < 1.04 µM | < 1.04 µM | 1.04 to 6.24 µM | < 1.04 µM | > 11.7 µM | 6.24 to 9.1 µM | 1.04 to 6.24 µM | 1.04 to 6.24 µM | < 1.04 µM
10 | COc1ccc(Nc2ncnc(N(C)c3cccc(Cl)c3)n2)cc1OC [Compound 621] | 1.08 to 6.45 µM | 1.08 to 6.45 µM | 1.08 to 6.45 µM | 1.08 to 6.45 µM | < 1.08 µM | > 12.1 µM | 6.45 to 9.41 µM | > 12.1 µM | > 12.1 µM | < 1.08 µM
11 | Cc1cccc(Nc2ncnc(Nc3ccc4c(cnn4Cc4ccccc4)c3)n2)c1 [Compound 553] | 0.982 to 5.89 µM | 0.982 to 5.89 µM | 0.982 to 5.89 µM | > 11 µM | 0.982 to 5.89 µM | 5.89 to 8.59 µM | 8.59 to 11 µM | 8.59 to 11 µM | 5.89 to 8.59 µM | < 0.982 µM
12 | COc1cc(Nc2ncnc(Nc3ccc4nn(C)cc4c3)n2)cc(OC)c1OC [Compound 556] | 0.982 to 5.89 µM | > 11 µM | < 0.982 µM | < 0.982 µM | < 0.982 µM | > 11 µM | < 0.982 µM | 0.982 to 5.89 µM | > 11 µM | 0.982 to 5.89 µM
13 | COc1ccc(Nc2ncnc(N3CCCc4ccc(C)cc43)n2)cc1OC [Compound 567] | < 1.06 µM | 1.06 to 6.36 µM | 1.06 to 6.36 µM | 1.06 to 6.36 µM | 6.36 to 9.27 µM | > 11.9 µM | > 11.9 µM | > 11.9 µM | > 11.9 µM | < 1.06 µM
14 | COc1ccc(-c2cc(Nc3ncnc(Nc4ccc(CC(N)=O)cc4)n3)[nH]n2)cc1 [Compound 576] | < 0.961 µM | < 0.961 µM | > 10.8 µM | < 0.961 µM | > 10.8 µM | > 10.8 µM | < 0.961 µM | 0.961 to 5.76 µM | > 10.8 µM | 0.961 to 5.76 µM
